Source: PMC1991597, “Structure and Reaction Mechanism of Basil Eugenol Synthase” (PLoS ONE, 2007)
Changes are numbered by the printed parent chain.

Columns and labels:
[1] = biological target: T1, eugenol synthase (EGS, EGS1) (Ocimum basilicum, UniProt Q15GI4); assay: X-ray co-crystal structure ([…] Å, soaking); enzyme inhibition kinetics (GC/MS); assay type: biochemical
[2] = biological target: T2, eugenol synthase (EGS, EGS1) (Ocimum basilicum, UniProt Q15GI4, K132A); assay: X-ray crystallography (no deposition stated); assay type: binding
T2 sequence (Q15GI4 1-314 K132A): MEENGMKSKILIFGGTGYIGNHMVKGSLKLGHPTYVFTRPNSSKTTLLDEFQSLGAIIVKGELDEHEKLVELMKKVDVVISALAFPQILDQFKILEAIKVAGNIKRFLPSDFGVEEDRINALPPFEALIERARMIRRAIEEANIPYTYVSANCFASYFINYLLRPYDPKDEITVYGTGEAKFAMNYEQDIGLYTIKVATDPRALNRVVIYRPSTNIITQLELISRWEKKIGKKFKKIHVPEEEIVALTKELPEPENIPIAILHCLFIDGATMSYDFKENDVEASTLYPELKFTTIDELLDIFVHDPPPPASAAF

[3] = biological target: T3, eugenol synthase (EGS, EGS1) (Ocimum basilicum, UniProt Q15GI4, K132Q); assay: X-ray co-crystal structure ([…] Å); assay type: binding
T3 sequence (Q15GI4 1-314 K132Q): T2 sequence (Q15GI4 1-314 K132A) with A132Q

[4] = biological target: T4, eugenol synthase (EGS, EGS1) (Ocimum basilicum, UniProt Q15GI4, K132R); assay: X-ray crystallography (preliminary structural analysis); assay type: binding
T4 sequence (Q15GI4 1-314 K132R): T2 sequence (Q15GI4 1-314 K132A) with A132R

[5] = biological target: T1, eugenol synthase (EGS, EGS1); assay: X-ray crystal structure ([…] Å monoclinic; also 2QX7 orthorhombic); assay type: binding
[6] = biological target: T1, eugenol synthase (EGS, EGS1); assay: X-ray crystal structure ([…] Å); assay type: binding
[7] = substrate: COc1cc(/C=C/COC(C)=O)ccc1O; assay: enzyme kinetics by GC/MS (Km); crystal soaking gave no stable complex; assay type: biochemical, Ocimum basilicum; settings: NADPH active site (binding mode modeled only)

T1 sequence (Q15GI4 whole entry): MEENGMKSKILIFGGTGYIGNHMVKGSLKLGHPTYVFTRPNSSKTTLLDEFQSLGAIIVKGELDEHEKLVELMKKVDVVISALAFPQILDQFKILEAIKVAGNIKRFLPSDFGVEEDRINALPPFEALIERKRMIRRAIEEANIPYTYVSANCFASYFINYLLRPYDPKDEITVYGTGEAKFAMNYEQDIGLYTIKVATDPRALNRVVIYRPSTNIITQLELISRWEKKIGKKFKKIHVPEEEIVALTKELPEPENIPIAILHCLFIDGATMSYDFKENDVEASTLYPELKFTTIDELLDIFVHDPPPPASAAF

Q: With `CCOC(=O)[C@H]1C[C@@H]1c1ccc(O)c(OC)c1` [EMDF, (1S,2S)-ethyl 2-(4-hydroxy-3-methoxyphenyl) cyclo-propanecarboxylate] as the molecule, how does the Ki [1] read?
A: 800 µM

Q: And the “X-ray crystallography (no deposition stated)” value [2]?
A: Crystallographic analyses confirmed that for the Ala132 and Gln132 mutants, both NADP^+ and EMDF binding are little affected

Q: And the “X-ray co-crystal structure (1.8 Å)” value [3]?
A: for the Ala132 and Gln132 mutants, both NADP^+ and EMDF binding are little affected (Figure 5C)

Q: What about the “X-ray crystallography (preliminary structural analysis)” value [4] of the same molecule?
A: EMDF-bound forms of the Lys132Arg mutant shows that the Arg132 guanidinium moiety is displaced slightly by the EMDF guaiacol ring

Q: Which “X-ray crystal structure (1.6 Å monoclinic; also 2QX7 orthorhombic)” value [5] does the source give for `NC(=O)c1ccc[n+]([C@@H]2O[C@H](COP(=O)(O)OP(=O)(O)OC[C@H]3O[C@@H](n4cnc5c(N)ncnc54)[C@H](OP(=O)(O)O)[C@@H]3O)[C@@H](O)[C@H]2O)c1` [NADP+] here?
A: The structures of EGS complexed with NADP^+ or NADPH provide the first structural characterization of nicotinamide-cofactor binding

Q: `NC(=O)C1=CN([C@@H]2O[C@H](COP(=O)(O)OP(=O)(O)OC[C@H]3O[C@@H](n4cnc5c(N)ncnc54)[C@H](OP(=O)(O)O)[C@@H]3O)[C@@H](O)[C@H]2O)C=CC1` [NADPH] was tested. Which “X-ray crystal structure (1.6 Å)” value [6] did it give?
A: Structural differences between the NADP^+ and NADPH complexes of EGS are small, and center around the nicotinamide ring

B1: eugenol synthase (EGS, EGS1) (Ocimum basilicum) (protein)
chain: T2 sequence (Q15GI4 1-314 K132A) with A132K
Q: B1 was tested. Which Km [7] did it give?
A: 570 µM
